In publication PMC3865801 (Journal of Medicinal Chemistry, 2013):
Where two headings read alike, the source gives them in different places.

Key:
[1] = target: T1, purified recombinant perforin (Mus musculus, UniProt P10820); test: cell-based; format: cell-based; details: lysis of Jurkat cells by purified recombinant perforin, 51Cr release, 0.1% BSA; average of at least three determinations; read-out: inhibition of Jurkat cell lysis, IC50
T1 sequence (P10820 21-554): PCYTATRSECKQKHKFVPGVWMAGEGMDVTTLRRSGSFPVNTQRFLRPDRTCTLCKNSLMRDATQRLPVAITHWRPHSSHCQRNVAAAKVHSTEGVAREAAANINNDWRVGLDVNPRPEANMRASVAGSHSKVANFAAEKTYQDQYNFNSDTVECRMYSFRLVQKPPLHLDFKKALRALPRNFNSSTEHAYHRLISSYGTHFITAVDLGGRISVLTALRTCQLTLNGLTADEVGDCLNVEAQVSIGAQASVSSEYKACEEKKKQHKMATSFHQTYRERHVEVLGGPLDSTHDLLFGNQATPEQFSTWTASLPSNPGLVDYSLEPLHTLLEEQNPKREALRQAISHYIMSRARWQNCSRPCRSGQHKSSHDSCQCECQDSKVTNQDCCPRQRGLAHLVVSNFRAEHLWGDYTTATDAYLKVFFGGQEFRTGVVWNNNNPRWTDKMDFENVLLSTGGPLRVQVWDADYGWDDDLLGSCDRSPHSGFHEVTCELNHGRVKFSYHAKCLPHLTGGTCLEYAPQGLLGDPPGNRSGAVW
Description: The ability of the compounds to inhibit the lysis of nucleated (Jurkat T lymphoma) cells in the presence of 0.1% BSA was measured by release of ^51Cr label. Jurkat target cells were labeled by incubation in medium with 100 μCi ^51Cr for 1 h. The cells were then washed three times to remove unincorporated isotope and resuspended at 1 × 10^5 cells per milliliter in RPMI buffer supplemented with 0.1% BSA. […] Each data point was performed in triplicate, and an IC50 was calculated from the range of concentrations described above.

[2] = target: T2, perforin produced by an intact NK cell line (KHYG-1) (Homo sapiens, UniProt P14222); test: KHYG-1 cytotoxicity assay: perforin-induced lysis of K562 target cells co-incubated with KHYG-1 NK cells; format: cell-based; details: 20 μM, K562 targets, ± SEM
T2 construct: the perforin is delivered by a functional NK cell; endogenous in cells; host or cells: KHYG-1 NK cells (K562 target cells)
T2 sequence (P14222 22-555): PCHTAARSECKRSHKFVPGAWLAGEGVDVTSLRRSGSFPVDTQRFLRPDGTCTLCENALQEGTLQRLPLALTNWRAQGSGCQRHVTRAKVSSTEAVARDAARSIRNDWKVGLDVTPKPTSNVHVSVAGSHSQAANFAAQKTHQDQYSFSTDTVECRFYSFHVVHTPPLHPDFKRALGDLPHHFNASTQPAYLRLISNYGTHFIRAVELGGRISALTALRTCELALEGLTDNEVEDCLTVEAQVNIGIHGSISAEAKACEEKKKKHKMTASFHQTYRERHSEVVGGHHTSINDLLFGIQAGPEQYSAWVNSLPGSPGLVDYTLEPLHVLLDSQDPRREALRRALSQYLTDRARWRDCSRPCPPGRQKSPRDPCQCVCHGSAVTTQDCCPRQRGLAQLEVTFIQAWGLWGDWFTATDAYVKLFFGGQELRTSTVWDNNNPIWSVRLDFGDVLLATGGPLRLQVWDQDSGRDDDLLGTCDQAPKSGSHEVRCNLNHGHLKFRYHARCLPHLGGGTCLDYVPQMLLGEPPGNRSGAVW
Description: KHYG-1 cells were washed and resuspended in RPMI + 0.1% BSA at 4 × 10^5 cells/mL, and an amount of 50 μL of KHYG-1 cells was dispensed to each well of a 96-well V-bottom plate. RPMI (50 μL) + 0.1% BSA or 10% (final concentration) of serum was added to each well. Then test compounds were added to KHYG-1 cells at various concentrations up to 20 μM and incubated at room temperature for 20 min. 1 × 10^6 K562 target cells were labeled with 75 μCi ^51Cr in 200 μL of RPMI for 90 min at 37 °C. Cells were washed as described above and resuspended in 5 mL of RPMI + 0.1% BSA. […] The percentage of specific cytotoxicity was calculated using the following formula: [drawing 4] and expressed as the mean of triplicate assays ± standard error of the mean.

[3] = Toxicity to KHYG-1 NK cells (Trypan blue exclusion); format: cell-based, human; details: human, KHYG-1 NK cells; 20 μM, 4 h exposure, viability after 24 h, Trypan blue, ± SEM
Description: The toxicity assay was carried out in exactly the same manner as the killing assay above, but instead of adding the labeled K562 target cells, 100 μL of RPMI 0.1% BSA was added. Cells were incubated for 4 h at 37 °C and then washed ×3 in RPMI + 0.1% BSA. […] Trypan blue was added to each well. Viable (clear) cells and total (clear + blue) cells were counted, and the percentage of viable cells was calculated compared to DMSO treated cell control (% viability).

[4] = Aqueous solubility of parent compound and sodium salt; details: aqueous medium (not further specified)
[5] = 10% mouse serum, read-out: KHYG-1 inhibition (% at 20 μM), 10% serum
[6] = no serum, vs untreated control, read-out: KHYG-1 inhibition (% at 20 μM), no serum

SMILES	IC50 [1]	inhibition at 20 µM [2, 5]	inhibition at 20 µM [2, 6]	viability at 4 h, 20 µM [3]	solubility [4]
O=C1NC(=S)N/C1=C/c1ccc(-c2ccc3c(c2)COC3=O)s1 [compound 4]	780 nM	38.9 ± 3.5%	53 ± 2.6%	88 ± 3%	23 µg/mL
O=C1NC(=S)N/C1=C/c1ccc(-c2ccc3c(c2)CNC3=O)s1 [compound 118]	2550 nM	55 ± 6.5%	56 ± 7.2%	95 ± 3.5%	0.54 µg/mL
CN1Cc2cc(-c3ccc(/C=C4/NC(=S)NC4=O)s3)ccc2C1=O [compound 119, (E,Z)-2-Methyl-5-(5-((5-oxo-2-thioxoimidazolidin-4-ylidene)methyl)thiophen-2-yl)isoindolin-1-one]		37 ± 2.4%	42 ± 5.5%	28 ± 1.5%	0.13 µg/mL
O=C1NC(=S)N/C1=C/c1ccc(-c2ccc3c(c2)CN(CCO)C3=O)s1 [compound 125, (E,Z)-2-(2-Hydroxyethyl)-5-(5-((5-oxo-2-thioxoimidazolidin-4-ylidene)methyl)thiophen-2-yl)isoindolin-1-one]	780 nM	24 ± 3.4%	43 ± 5.8%	81 ± 0.5%	43 µg/mL
O=C1NC(=S)N/C1=C/c1ccc(-c2ccc3c(c2)CN(CCCO)C3=O)s1 [compound 126]	530 nM	17 ± 3%	48 ± 7.9%	90 ± 3%	1.78 µg/mL
CCOC(=O)N1Cc2cc(-c3ccc(/C=C4/NC(=S)NC4=O)s3)ccc2C1=O [compound 129]	550 nM	35 ± 9.5%	46 ± 5.9%	93 ± 4.1%	0.18 µg/mL
O=C1NC(=O)/C(=C\c2ccc(-c3ccc4c(c3)CNC4=O)s2)N1 [compound 136]	400 nM	50 ± 7.1%	49 ± 9.8%	93 ± 3%	11.6 µg/mL
O=C1NC(=S)N/C1=C/c1ccc(-c2ccc3c(c2)C(=O)NCC3)s1 [compound 168]	640 nM	23 ± 7.1%	51 ± 4%	87 ± 4.1%	0.13 µg/mL
O=C1NC(=S)N/C1=C/c1ccc(-c2ccc3c(c2)CNC3=O)cn1 [compound 207]	630 nM	13 ± 3.8%	43 ± 5.4%	92 ± 2.6%	0.59 µg/mL
